Laboratory results from US20240217978A1 (CHONG KUN DANG PHARMACEUTICAL CORP., priority 2021, published 2024).

Molecular target: human adenosine A2a receptor (Homo sapiens (Human), UniProt P29274)
Test: A2a receptor binding affinity, [3H]-NECA radioligand binding test
Conditions: [3H]-NECA 37 nM; membrane from HEK-293 cells transfected with human adenosine A2a receptor
In short: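 Membranes from HEK-293 cells expressing human A2a receptor were incubated with [3H]-NECA (final 37 nM) and compound for 1 h at room temperature in 50 mM Tris, 10 mM MgCl2, 1 mM EDTA, pH 7.4. Bound ligand was filtered on PEI-coated plates and counted by scintillation to derive IC50 (μM).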

Sequence of human adenosine A2a receptor (P29274 whole entry): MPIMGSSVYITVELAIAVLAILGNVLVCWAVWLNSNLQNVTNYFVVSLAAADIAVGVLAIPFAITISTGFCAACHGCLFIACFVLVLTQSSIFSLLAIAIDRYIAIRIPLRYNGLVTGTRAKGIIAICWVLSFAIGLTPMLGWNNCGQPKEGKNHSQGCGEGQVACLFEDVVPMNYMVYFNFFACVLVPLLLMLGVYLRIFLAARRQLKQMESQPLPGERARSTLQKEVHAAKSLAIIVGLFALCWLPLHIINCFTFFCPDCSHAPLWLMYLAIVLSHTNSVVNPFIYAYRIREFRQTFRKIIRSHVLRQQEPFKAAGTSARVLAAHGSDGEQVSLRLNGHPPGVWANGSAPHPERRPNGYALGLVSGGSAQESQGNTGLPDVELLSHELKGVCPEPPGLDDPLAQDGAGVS

| Structure (SMILES) | IC50 |
| --- | --- |
| C[C@@H]1CN(C(=O)Nc2ccccc2)CCN1C(=O)[C@@H]1CCCN1c1nc(N)n2nc(-c3ccco3)nc2n1 [Example 182, (R)-4-((7-amino-2-(furan-2-yl)-[1,2,4]triazolo[1,5-a][1,3,5]triazine-5-yl)-L-prolyl)-3-methyl-N-phenylpiperazin-1-carboxamide] | 8 nM |
| CCC[C@H](Nc1nc(N)n2nc(-c3ccco3)nc2n1)C(=O)N1CCN(c2ccc(F)cc2F)CC1 [Example 163, (S)-2-((7-amino-2-(furan-2-yl)-[1,2,4]triazolo[1,5-a][1,3,5]triazin-5-yl)amino)-1-(4-(2,4-difluorophenyl)piperazin-1-yl)pentan-1-one] | 0.5 nM |
| Nc1nc(N2CCC[C@H]2C(=O)N2CCN(CC3(C(F)(F)F)CCCCC3)CC2)nc2nc(-c3ccco3)nn12 [Example 285] | 0.2 nM |
| Nc1nc(N[C@@H](CO)C(=O)N2CCN(c3ccccc3)C(=O)C2)nc2nc(-c3ccco3)nn12 [Example 234] | 12 nM |
| Cc1ccc(-c2nc3nc(N4CC[C@H]4C(=O)N4CCN(CC(F)(F)C(F)(F)F)CC4)nc(N)n3n2)o1 [Example 313, (S)-(1-(7-amino-2-(5-methylfuran-2-yl)-[1,2,4]triazolo[1,5-a][1,3,5]triazin-5-yl)azetidin-2-yl)(4-(2,2,3,3,3-pentafluoropropyl)piperazin-1-yl)methanone] | 5 nM |

The next lines start with the values.

| IC50 | Structure (SMILES) |
| --- | --- |
| 7 nM | CC(C)[C@H](Nc1nc(N)n2nc(-c3ccco3)nc2n1)C(=O)N1CCN(CC(C)(C)F)CC1 [Example 59, (S)-2-((7-amino-2-(furan-2-yl)-[1,2,4]triazolo[1,5-a][1,3,5]triazin-5-yl)amino)-1-(4-(2-fluoro-2-methylpropyl)piperazin-1-yl)-3-methylbutan-1-one] |
| 3 nM | Nc1nc(N2CCC[C@H]2C(=O)N2CCN(C(=O)c3cscn3)CC2)nc2nc(-c3ccco3)nn12 [Example 105] |
| 3 nM | Cc1ccc(-c2nc3nc(N4CC[C@H]4C(=O)N4CCN(C5CCCCC5)CC4)nc(N)n3n2)o1 [Example 219, (S)-(1-(7-amino-2-(5-methylfuran-2-yl)-[1,2,4]triazolo[1,5-a][1,3,5]triazin-5-yl)azetidin-2-yl)(4-cyclohexylpiperazin-1-yl)methanone] |
| 13 nM | Nc1nc(N2CCC[C@H]2C(=O)N2CCN(CC(F)(F)F)CC2)nc2nc(-c3ccco3)nn12 [Example 48, (S)-(1-(7-amino-2-(furan-2-yl)-[1,2,4]triazolo[1,5-a][1,3,5]triazin-5-yl)pyrrolidin-2-yl)(4-(2,2,2-trifluoroethyl)piperazin-1-yl)methanone] |
| 16 nM | Nc1nc(N2CCC[C@H]2C(=O)N2CCN(C3CCCCC3)CC23CC3)nc2nc(-c3ccco3)nn12 [Example 344, (S)-(1-(7-amino-2-(furan-2-yl)-[1,2,4]triazolo[1,5-a][1,3,5]triazin-5-yl)pyrrolidin-2-yl)(7-cyclohexyl-4,7-diazaspiro[2.5]octan-4-yl)methanone] |
| 2 nM | Cc1ccc(-c2nc3nc(N4CCC[C@H]4C(=O)N4CCN(CC(C)(F)F)CC4)nc(N)n3n2)o1 [Example 311, (S)-(1-(7-amino-2-(5-methylfuran-2-yl)-[1,2,4]triazolo[1,5-a][1,3,5]triazin-5-yl)pyrrolidin-2-yl)(4-(2,2-difluoropropyl)piperazin-1-yl)methanone] |
| 12 nM | Nc1nc(N2C[C@H](O)C[C@H]2C(=O)N2CCN(c3ccc(F)cc3F)CC2)nc2nc(-c3ccco3)nn12 [Example 37] |
| 0.5 nM | Nc1nc(N2CCC[C@H]2C(=O)N2CCN(c3ccc(C(F)(F)F)cc3F)CC2)nc2nc(-c3ccco3)nn12 [Example 149, (S)-(1-(7-amino-2-(furan-2-yl)-[1,2,4]triazolo[1,5-a][1,3,5]triazin-5-yl)pyrrolidin-2-yl)(4-(2-fluoro-4-(trifluoromethyl)phenyl)piperazin-1-yl)methanone] |
